What was measured:
Acetylcholinesterase = Acetylcholinesterase (Electrophorus electricus, UniProt O42275); test: Cholinesterases Inhibition Assay
Description: (§1) The stock solutions of the target compounds were prepared in a mixture of DMSO (1 ml) and ethanol (9 ml) and diluted with 0.1 MKH2PO4/K2HPO4 buffer (pH 8.0) to obtain final concentrations. […] of substrate (acetylthiocholine iodide 0.075 m) was added to the test solution to obtain final concentration of […]. All experiments were performed based on the previously described method.[Nadri et al., Bioorg. […] Spectrophotometric measurements were performed on a UV Unico double-beam spectrophotometer. The same method was also taken for BuChE inhibition assay.

[1] = target: Carboxylic ester hydrolase (Equus caballus, UniProt Q9N1N9); test: Cholinesterases Inhibition Assay
Description: as §1

Carboxylic ester hydrolase, sequence (Q9N1N9 whole entry): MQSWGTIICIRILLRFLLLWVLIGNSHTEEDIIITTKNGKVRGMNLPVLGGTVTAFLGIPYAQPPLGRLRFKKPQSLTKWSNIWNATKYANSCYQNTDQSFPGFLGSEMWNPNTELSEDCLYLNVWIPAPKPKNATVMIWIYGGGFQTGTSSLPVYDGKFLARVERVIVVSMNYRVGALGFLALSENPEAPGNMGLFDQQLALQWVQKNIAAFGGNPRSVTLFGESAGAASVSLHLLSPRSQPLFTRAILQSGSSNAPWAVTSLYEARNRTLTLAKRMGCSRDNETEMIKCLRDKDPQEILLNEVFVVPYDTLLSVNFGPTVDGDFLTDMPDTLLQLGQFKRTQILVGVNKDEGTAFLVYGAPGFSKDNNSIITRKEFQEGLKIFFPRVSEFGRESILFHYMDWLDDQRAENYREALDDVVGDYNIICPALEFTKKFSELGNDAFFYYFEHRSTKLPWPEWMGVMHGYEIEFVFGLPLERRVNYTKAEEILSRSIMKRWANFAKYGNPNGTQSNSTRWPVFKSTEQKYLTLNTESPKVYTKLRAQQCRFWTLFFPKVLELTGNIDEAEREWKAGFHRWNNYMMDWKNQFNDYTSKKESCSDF
Acetylcholinesterase, sequence (O42275 whole entry): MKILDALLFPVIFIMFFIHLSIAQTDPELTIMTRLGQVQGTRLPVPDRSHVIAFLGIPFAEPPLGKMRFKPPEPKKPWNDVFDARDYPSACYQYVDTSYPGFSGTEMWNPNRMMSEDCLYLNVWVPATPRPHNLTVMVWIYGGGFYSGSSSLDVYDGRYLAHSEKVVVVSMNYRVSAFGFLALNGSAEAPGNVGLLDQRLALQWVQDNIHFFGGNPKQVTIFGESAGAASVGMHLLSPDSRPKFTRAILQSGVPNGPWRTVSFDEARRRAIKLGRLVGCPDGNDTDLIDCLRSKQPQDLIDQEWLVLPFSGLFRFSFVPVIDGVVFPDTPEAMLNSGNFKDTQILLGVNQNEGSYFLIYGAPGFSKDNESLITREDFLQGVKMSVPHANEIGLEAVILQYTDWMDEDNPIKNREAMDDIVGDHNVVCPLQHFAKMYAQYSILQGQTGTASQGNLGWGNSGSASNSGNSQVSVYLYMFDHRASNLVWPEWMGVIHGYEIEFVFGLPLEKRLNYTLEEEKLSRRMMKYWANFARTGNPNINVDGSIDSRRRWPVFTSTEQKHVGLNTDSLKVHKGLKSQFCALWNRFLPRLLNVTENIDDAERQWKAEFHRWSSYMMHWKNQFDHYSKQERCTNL

| Compound | IC50 (Acetylcholinesterase) [µM] | IC50 [1] [µM] |
| --- | --- | --- |
| c1ccc2oc(-c3ccc(CN4CCCC4)cc3)nc2c1 [2-(4-((Pyrrolidin-1-yl)methyl)phenyl)benzo[d]oxazole (6j)] | 1.35 | 8.1 |
| CCN1CCN(Cc2ccc(-c3nc4ccccc4o3)cc2)CC1 [2-(4-((4-Ethylpiperazin-1-yl)methyl)phenyl)benzo[d]oxazole (6g)] | 38.2 | > 100 |
| c1ccc2oc(-c3ccc(CN4CCCCC4)cc3)nc2c1 [2-(4-((Piperidin-1-yl)methyl)phenyl)benzo[d]oxazole (6a)] | 1.03 | 6.6 |
| c1ccc2oc(-c3ccc(CN4CCSCC4)cc3)nc2c1 [2-(4-(Thiomorpholinomethyl)phenyl)benzo[d]oxazole (6d)] | 2.55 | 16.9 |
| c1ccc2oc(-c3ccc(CN4CCOCC4)cc3)nc2c1 [2-(4-(Morpholinomethyl)phenyl)benzo[d]oxazole (6c)] | 20.1 | > 100 |
| c1ccc(CC2CCN(Cc3ccc(-c4nc5ccccc5o4)cc3)CC2)cc1 [2-(4-((4-Benzylpiperidin-1-yl)methyl)phenyl)benzo[d]oxazole (6b)] | > 100 | > 100 |
| c1ccc2oc(-c3ccc(CN4CCNCC4)cc3)nc2c1 [2-(4-((Piperazin-1-yl)methyl)phenyl)benzo[d]oxazole (6e)] | 3.45 | 21.5 |
| c1ccc(CN2CCN(Cc3ccc(-c4nc5ccccc5o4)cc3)CC2)cc1 [2-(4-((4-Benzylpiperazin-1-yl)methyl)phenyl)benzo[d]oxazole (6i)] | > 100 | > 100 |
| c1ccc(CN2CCC(NCc3ccc(-c4nc5ccccc5o4)cc3)CC2)cc1 [N-((4-(benzo[d]oxazol-2-yl)phenyl)methyl)-1-benzylpiperidin-4-amine (6n)] | 7.76 | 50.1 |
| c1ccc(N2CCN(Cc3ccc(-c4nc5ccccc5o4)cc3)CC2)cc1 [2-(4-((4-Phenylpiperazine-1-yl)methyl)phenyl)benzo[d]oxazole (6h)] | > 100 | > 100 |
| CN1CCN(Cc2ccc(-c3nc4ccccc4o3)cc2)CC1 [2-(4-((4-Methylpiperazin-1-yl)methyl)phenyl)benzo[d]oxazole (6f)] | 62.2 | > 100 |
| c1ccc(CNCc2ccc(-c3nc4ccccc4o3)cc2)cc1 [(4-(Benzo[d]oxazol-2-yl)phenyl)-Nbenzylmethylamine (6k)] | 25.4 | > 100 |
| CN(Cc1ccccc1)Cc1ccc(-c2nc3ccccc3o2)cc1 [(4-(Benzo[d]oxazol-2-yl)phenyl)-N-benzyl-N-methylmethanamine (6l)] | 30.8 | > 100 |
| CCN(Cc1ccccc1)Cc1ccc(-c2nc3ccccc3o2)cc1 [N-((4-(benzo[d]oxazol-2-yl)phenyl)methyl)-N-benzylethanamine (6m)] | 56.4 | > 100 |
